Assays:
[1] = Stability (acceleration) test of crystalline forms, purity by HPLC; type: physicochemical; conditions: for change of appearance, related substance and crystalline form: 30 days; for Overall impurity (%) / impurity A (%) / impurity B (%) / purity (%): HPLC; for appearance: cell wraps ('powder' on next line)
[2] = Hygroscopicity test (Chinese Pharmacopoeia 2010, weight gain by sorption); type: physicochemical; conditions: 25° C.±1° C., about 24 h; for Result (hygroscopic properties): cell wraps: 'Low hygroscopic'; for Weight gain by absorption (%): constant humidity (saturated ammonium chloride or ammonium sulfate)
Procedure: Hygroscopicity Test of Crystalline Form I and Form III of the Compound of Formula (I) 1 Instrument and Regents 1.1 Instrument: 1/100000 Scale, XP205DR 1.2 Test Method According to “Chinese Pharmacopoeia”2010 edition, proportion II, XI X J. 1) Keep a dry glass weighing bottle with stopper (external diameter: 50 mm, height: 15 mm) in 25° C.±1° C. of thermostatic drier with saturated solution of ammonium chloride or ammonium sulfate placing on the bottom, precisely weighed (m1). 2) An appropriate amount of sample was spread in the weighing bottle by a millimeter thick, precisely weighed (m2). 3) An open weighing bottle and lid were kept together in environment of constant temperature and humidity for about 24 h.

[3] = day 0, cell wraps: shows characteristic peaks of the crystalline form
[4] = day 30, 40° C.±2° C./75% RH±5%, Yes = shows characteristic peaks of the crystalline form

Row | stability ([1]; 40° C.±2° C./75% RH±5%) | change of appearance, related substance and crystalline form ([1]; 40° C.±2° C./75% RH±5%) | Overall impurity (%) ([1]; day 0, 40° C.±2° C./75% RH±5%) | impurity A (%) ([1]; day 0, 40° C.±2° C./75% RH±5%) | impurity B (%) ([1]; day 0, 40° C.±2° C./75% RH±5%) | purity (%) ([1]; day 0, 40° C.±2° C./75% RH±5%) | appearance ([1]; day 0, 40° C.±2° C./75% RH±5%) | DSC [1, 3] | XRD [1, 3] | Overall impurity (%) ([1]; day 30, 40° C.±2° C./75% RH±5%) | impurity A (%) ([1]; day 30, 40° C.±2° C./75% RH±5%) | impurity B (%) ([1]; day 30, 40° C.±2° C./75% RH±5%) | purity (%) ([1]; day 30, 40° C.±2° C./75% RH±5%) | DSC [1, 4] | XRD [1, 4] | appearance ([1]; day 30, 40° C.±2° C./75% RH±5%) | Result (hygroscopic properties) [2] | Weight gain by absorption (%) [2] [%] | Structure (SMILES)
1 | stable for a month | did not change | 0.44 | 0.06 | 0.26 | 99.6 | Off-white | Shows | Shows | 0.43 | 0.06 | 0.26 | 99.6 | Yes | Yes | Off-white | Low | 0.1 | COC(=O)N(C)c1c(N)nc(-c2nn(Cc3ccccc3F)c3ncccc23)nc1N [crystalline form I, methyl {4,6-diamino-2-[1-(2-fluorobenzyl)-1H-pyrazolo[3,4-B]pyridine-3-yl]pyrimidine-5-yl}N-methylcarbamate]
2 | stable for a month | did not change | 0.65 | 0.05 | 0.35 | 99.4 | pale yellow | Show | Show | 0.57 | 0.04 | 0.34 | 99.4 | Yes | Yes | pale yellow | Low | 0.04 | COC(=O)N(C)c1c(N)nc(-c2nn(Cc3ccccc3F)c3ncccc23)nc1N [crystalline form III, methyl {4,6-diamino-2-[1-(2-fluorobenzyl)-1H-pyrazolo[3,4-B]pyridine-3-yl]pyrimidine-5-yl}N-methylcarbamate]

— patent publication US9884859B2, “Solid form of pyrazolopyridine compound” (SUNSHINE LAKE PHARMA CO., LTD., priority 2013, dated 2018)
